Experimental data: patent EP4692090A1 (Shanghai Fosun Pharmaceutical (Group) Co., Ltd., priority 2023, dated 2024)
Like-named read-outs stand apart in the source and are kept apart here.

Legend:
ATR kinase = target: T1, ATR kinase (Homo sapiens, UniProt Q13535); assay: Inhibitory effect on ATR kinase activity (Caliper mobility shift, FAM-labeled RAD17 peptide substrate); format: biochemical
T1 construct: purchased Eurofins 14-953
Method in brief: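 Caliper mobility-shift assay with 1 nM ATR, FAM-labeled RAD17 peptide […] and 5 mM ATP in HEPES pH 7.5 with 10 mM MnCl2, run 3 h at 28 °C and stopped with EDTA. Compounds were tested in 10-point 3-fold dilutions from 1 µM. IC50 was fitted from % inhibition of substrate conversion versus blank control.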

LoVo cells = assay: LoVo cell proliferation assay (CellTiter-Glo); format: cell-based; conditions: maximum concentration 10 µM, 9 concentrations
Method in brief: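 LoVo cells, 2,000 per well, were treated after overnight attachment with 9-point 3-fold dilutions from 10 µM for 5 days at 37 °C. Viability was read by CellTiter-Glo luminescence. Inhibition % was taken relative to DMSO control, and IC50 came from the concentration–inhibition curve.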

[1] = 1 nM ATR kinase (Eurofins), 28°C for 3 hours, maximum concentration 1 µM, 10 concentrations, read-out: ATR kinase IC50
[2] = Homo sapiens, LoVo, 120 h, LoVo cells, 2,000 cells per well, 5 days incubation, CellTiter-Glo, read-out: LoVo IC50
[3] = read-out: ATR kinase IC50, 1 nM ATR kinase (Eurofins), 28°C for 3 hours, maximum concentration 1 µM, 10 concentrations
[4] = Homo sapiens, LoVo, 120 h, read-out: LoVo IC50 (nM), LoVo cells, 2,000 cells per well, 5 days incubation, CellTiter-Glo
[5] = LoVo cells, 2,000 cells per well, 5 days incubation, CellTiter-Glo, read-out: LoVo IC50

T1 sequence (Q13535 whole entry): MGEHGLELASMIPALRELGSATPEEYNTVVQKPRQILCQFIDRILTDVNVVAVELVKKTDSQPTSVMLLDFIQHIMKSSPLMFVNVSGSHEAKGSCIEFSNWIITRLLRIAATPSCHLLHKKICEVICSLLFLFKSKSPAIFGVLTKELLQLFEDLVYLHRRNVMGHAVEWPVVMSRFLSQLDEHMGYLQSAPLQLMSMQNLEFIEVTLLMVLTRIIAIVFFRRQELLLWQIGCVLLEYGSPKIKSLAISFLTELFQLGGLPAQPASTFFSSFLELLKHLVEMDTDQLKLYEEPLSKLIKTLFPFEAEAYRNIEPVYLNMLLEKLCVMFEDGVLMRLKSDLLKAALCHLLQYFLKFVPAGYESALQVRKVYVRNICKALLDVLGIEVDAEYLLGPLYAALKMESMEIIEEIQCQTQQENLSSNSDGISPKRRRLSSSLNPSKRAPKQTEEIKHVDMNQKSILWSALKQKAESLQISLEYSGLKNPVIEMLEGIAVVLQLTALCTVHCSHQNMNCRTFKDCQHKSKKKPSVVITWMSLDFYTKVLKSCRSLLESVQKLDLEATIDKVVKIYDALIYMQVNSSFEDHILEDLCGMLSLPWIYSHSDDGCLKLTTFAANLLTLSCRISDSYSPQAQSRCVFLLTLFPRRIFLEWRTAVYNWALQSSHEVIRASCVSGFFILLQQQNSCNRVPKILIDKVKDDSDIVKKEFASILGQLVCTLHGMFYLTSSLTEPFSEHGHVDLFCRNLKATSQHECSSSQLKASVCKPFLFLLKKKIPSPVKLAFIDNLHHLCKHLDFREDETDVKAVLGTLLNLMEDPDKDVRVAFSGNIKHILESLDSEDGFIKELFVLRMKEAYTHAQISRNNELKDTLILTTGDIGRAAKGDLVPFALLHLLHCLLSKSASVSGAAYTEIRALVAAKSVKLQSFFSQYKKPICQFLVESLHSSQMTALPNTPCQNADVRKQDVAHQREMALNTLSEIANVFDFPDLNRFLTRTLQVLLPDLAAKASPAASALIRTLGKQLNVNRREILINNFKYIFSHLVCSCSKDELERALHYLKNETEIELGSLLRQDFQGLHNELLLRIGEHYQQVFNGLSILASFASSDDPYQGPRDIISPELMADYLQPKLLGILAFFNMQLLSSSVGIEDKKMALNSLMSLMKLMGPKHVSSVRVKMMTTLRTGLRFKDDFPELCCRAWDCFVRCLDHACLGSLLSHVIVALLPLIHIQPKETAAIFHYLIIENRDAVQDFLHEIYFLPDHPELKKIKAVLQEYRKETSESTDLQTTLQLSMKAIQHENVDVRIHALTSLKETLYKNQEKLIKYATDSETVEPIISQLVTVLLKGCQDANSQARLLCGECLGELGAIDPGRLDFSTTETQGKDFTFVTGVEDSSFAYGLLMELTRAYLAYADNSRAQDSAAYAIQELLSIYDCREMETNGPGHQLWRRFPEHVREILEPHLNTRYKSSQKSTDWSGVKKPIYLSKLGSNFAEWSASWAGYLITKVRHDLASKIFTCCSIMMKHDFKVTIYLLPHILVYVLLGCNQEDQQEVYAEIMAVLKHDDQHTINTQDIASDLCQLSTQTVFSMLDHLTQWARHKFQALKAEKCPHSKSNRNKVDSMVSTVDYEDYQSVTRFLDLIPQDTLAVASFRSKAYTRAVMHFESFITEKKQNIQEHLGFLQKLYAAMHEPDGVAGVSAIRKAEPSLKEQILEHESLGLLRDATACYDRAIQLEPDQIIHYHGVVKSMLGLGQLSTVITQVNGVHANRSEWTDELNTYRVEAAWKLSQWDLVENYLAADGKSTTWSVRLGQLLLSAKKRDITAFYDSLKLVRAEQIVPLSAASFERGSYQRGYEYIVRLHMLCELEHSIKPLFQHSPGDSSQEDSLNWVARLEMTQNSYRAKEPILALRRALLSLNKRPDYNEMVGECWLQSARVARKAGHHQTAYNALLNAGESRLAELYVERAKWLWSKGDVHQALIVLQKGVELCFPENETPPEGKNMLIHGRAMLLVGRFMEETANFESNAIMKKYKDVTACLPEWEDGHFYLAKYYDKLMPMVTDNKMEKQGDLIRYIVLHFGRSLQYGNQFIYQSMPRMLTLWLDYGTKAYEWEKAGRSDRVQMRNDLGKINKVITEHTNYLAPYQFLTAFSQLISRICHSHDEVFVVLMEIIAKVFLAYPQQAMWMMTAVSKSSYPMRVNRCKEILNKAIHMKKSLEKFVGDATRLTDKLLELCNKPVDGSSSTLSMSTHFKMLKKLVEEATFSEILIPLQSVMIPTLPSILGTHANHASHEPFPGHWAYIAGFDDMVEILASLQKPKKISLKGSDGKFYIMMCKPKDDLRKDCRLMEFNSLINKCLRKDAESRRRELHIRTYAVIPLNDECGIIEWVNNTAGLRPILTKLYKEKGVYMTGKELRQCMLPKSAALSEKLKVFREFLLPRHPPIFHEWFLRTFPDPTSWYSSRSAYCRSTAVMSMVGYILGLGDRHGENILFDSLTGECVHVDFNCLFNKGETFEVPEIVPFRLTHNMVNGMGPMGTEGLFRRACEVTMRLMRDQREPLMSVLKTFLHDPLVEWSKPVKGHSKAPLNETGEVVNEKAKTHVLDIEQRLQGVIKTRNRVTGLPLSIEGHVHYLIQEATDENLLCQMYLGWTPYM
T1 sequence (Q8WXE1 whole entry partner): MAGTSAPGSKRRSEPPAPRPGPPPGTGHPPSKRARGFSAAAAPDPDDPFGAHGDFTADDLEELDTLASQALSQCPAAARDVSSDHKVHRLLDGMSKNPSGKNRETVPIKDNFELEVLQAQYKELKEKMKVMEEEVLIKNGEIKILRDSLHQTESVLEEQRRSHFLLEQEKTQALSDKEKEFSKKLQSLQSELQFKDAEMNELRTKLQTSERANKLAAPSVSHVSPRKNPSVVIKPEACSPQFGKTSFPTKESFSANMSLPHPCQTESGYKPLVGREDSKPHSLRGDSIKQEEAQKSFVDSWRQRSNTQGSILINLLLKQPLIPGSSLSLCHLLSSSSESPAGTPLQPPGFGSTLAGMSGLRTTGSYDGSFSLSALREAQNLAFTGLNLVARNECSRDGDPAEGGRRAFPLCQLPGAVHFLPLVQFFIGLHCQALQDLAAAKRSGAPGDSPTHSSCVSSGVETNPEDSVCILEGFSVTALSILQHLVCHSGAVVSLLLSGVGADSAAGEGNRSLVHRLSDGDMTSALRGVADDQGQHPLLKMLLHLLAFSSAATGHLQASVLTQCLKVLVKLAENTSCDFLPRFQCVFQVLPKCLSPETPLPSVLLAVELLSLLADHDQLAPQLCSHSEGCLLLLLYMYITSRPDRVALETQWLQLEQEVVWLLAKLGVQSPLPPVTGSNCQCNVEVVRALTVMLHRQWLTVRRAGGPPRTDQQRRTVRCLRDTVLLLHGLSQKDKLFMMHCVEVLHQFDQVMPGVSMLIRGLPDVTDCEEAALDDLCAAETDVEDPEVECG

SMILES	IC50 (ATR kinase; [1]) [nM]	IC50 (LoVo cells; [2]) [nM]	IC50 (LoVo cells; [5]) [nM]	IC50 (ATR kinase; [3]) [nM]	IC50 (LoVo cells; [4]) [nM]
C[C@@H]1COCCN1c1cc2c3c(nn(-c4cc[nH]n4)c3n1)CCN(S(=O)(=O)C1CC1)C2 [Compound 23, (R)-4-(7-(cyclopropylsulfonyl)-2-(1H-pyrazol-3-yl)-6,7,8,9-tetrahydro-2H-1,2,3,7-tetraazabenzo[cd]azulen-4-yl)-3-methylmorpholine]	< 10	100 to 1000			
C[C@@H]1COCCN1c1cc2c3c(nn(-c4cc[nH]n4)c3n1)CCN(S(C)(=N)=O)C2 (stereo partly drawn) [Compound 28, (3R)-3-methyl-4-(7-(S-methylsulfonylimino)-2-(1H-pyrazol-3-yl)-6,7,8,9-tetrahydro-2H-1,2,3,7-tetraazabenzo[cd]azulen-4-yl)morpholine]	10 to 100	> 1000			
CC1c2cc(N3CCOC[C@H]3C)nc3c2c(nn3-c2cc[nH]n2)CCN1S(=O)(=O)CCO (stereo partly drawn) [Compound 34]				< 10	100 to 1000
C[C@@H]1COCCN1c1cc2c3c(nn(-c4cc[nH]n4)c3n1)CCN(C1CCOC1)C2 (stereo partly drawn) [Compound 4, (3R)-4-(2-(1H-pyrazol-3-yl)-7-(tetrahydrofuran-3-yl)-6,7,8,9-tetrahydro-2H-1,2,3,7-tetraazabenzo[cd]azulen-4-yl)-3-methylmorpholine]	10 to 100	100 to 1000			
C[C@@H]1COCCN1c1cc2c3c(n1)c(-c1cc[nH]n1)nn3CCC(=O)N2C1CC1 [Compound 82, (R)-6-cyclopropyl-4-(3-methylmorpholino)-2-(1H-pyrazol-3-yl)-8,9-dihydro-1,3,6,9a-tetraazabenzo[cd]azulene-7(6H)-one]	< 10	< 100			
C[C@@H]1COCCN1c1cc2c3c(n1)c(-c1cc[nH]n1)nn3CCC(=O)N2CC1CC1 [Compound 83, (R)-6-(cyclopropylmethyl)-4-(3-methylmorpholino)-2-(1H-pyrazol-3-yl)-8,9-dihydro-1,3,6,9a-tetraazabenzo[cd]azulene-7(6H)-one]	10 to 100	< 100			
C[C@@H]1COCCN1c1cc2c3c(n1)c(-c1cc[nH]n1)nn3CCCN2CC(C)(C)O [Compound 123, (R)-2-methyl-1-(4-(3-methylmorpholinyl)-2-(1H-pyrazol-3-yl)-8,9-dihydro-1,3,6,9a-tetraazabenzo[cd]azulene-6(7H)-yl)propan-2-ol]				10 to 100	100 to 1000
C[C@@H]1COCCN1c1cc2c3c(n1)c(-c1cc[nH]n1)nn3CCC(=O)N2CC12CC(F)(C1)C2 [Compound 115, (R)-6-((3-fluorobicyclo[1.1.1]pentan-1-yl)methyl)-4-(3-methylmorpholinyl)-2-(1H-pyrazol-3-yl)-8,9-dihydro-1,3,6,9a-tetraazabenzo[cd]azulene-7(6H)-one]				< 10	< 100
C[C@@H]1COCCN1c1cc2c3c(nn(-c4cc[nH]n4)c3n1)CCN(C(=O)C1CC3(C1)CC3(F)F)C2 (single isomer, unassigned) [Compound 20B]	10 to 100		> 1000		
CC(C)N1CCCn2nc(-c3cc[nH]n3)c3nc(N4CCOC[C@H]4C)cc1c32 [Compound 120, (R)-4-(6-isopropyl-2-(1H-pyrazol-3-yl)-6,7,8,9-tetrahydro-1,3,6,9a-tetraazabenzo[cd]azulen-4-yl)-3-methylmorpholine]	10 to 100	100 to 1000			
C[C@@H]1COCCN1c1cc2c3c(n1)c(-c1cc[nH]n1)nn3CCC(=O)N2CC1(C)CC1 [Compound 87, (R)-6-((1-methylcyclopropyl)methyl)-4-(3-methylmorpholinyl)-2-(1H-pyrazol-3-yl)-8,9-dihydro-1,3,6,9a-tetraazabenzo[cd]azulene-7(6H)-one]				10 to 100	< 100
C=CC(C)N1C(=O)CCn2nc(-c3cc[nH]n3)c3nc(N4CCOC[C@H]4C)cc1c32 (stereo partly drawn) [Compound 106, 6-(but-3-en-2-yl)-4-((R)-3-methylmorpholinyl)-2-(1H-pyrazol-3-yl)-8,9-dihydro-1,3,6,9a-tetraazabenzo[cd]azulene-7(6H)-one]				< 10	< 100
C[C@@H]1COCCN1c1cc2c3c(n1)c(-c1cc[nH]n1)nn3CCC(=O)N2C1CC1C(F)(F)F (stereo partly drawn) [Compound 96, 4-((R)-3-methylmorpholinyl)-2-(1H-pyrazol-3-yl)-6-(2-(trifluoromethyl)cyclopropyl)-8,9-dihydro-1,3,6,9a-tetraazabenzo[cd]azulene-7(6H)-one]				10 to 100	100 to 1000
C[C@@H]1COCCN1c1cc2c3c(n1)c(-c1cc[nH]n1)nn3CCCN2C1CC1 [Compound 122, (R)-4-(6-cyclopropyl-2-(1H-pyrazol-3-yl)-6,7,8,9-tetrahydro-1,3,6,9a-tetraazabenzo[cd]azulen-4-yl)-3-methylmorpholine]	10 to 100	100 to 1000			
COCC1(N2C(=O)CCn3nc(-c4cc[nH]n4)c4nc(N5CCOC[C@H]5C)cc2c43)CC1 [Compound 113, (R)-6-(1-(methoxymethyl)cyclopropyl)-4-(3-methylmorpholinyl)-2-(1H-pyrazol-3-yl)-8,9-dihydro-1,3,6,9a-tetraazabenzo[cd]azulene-7(6H)-one]				10 to 100	100 to 1000
C[C@@H]1COCCN1c1cc2c3c(n1)c(-c1cc[nH]n1)nn3CCC(=O)N2C1CC1(F)F (stereo partly drawn) [Compound 89, 6-(2,2-difluorocyclopropyl)-4-((R)-3-methylmorpholinyl)-2-(1H-pyrazol-3-yl)-8,9-dihydro-1,3,6,9a-tetraazabenzo[cd]azulene-7(6H)-one]				< 10	100 to 1000
C[C@@H]1COCCN1c1cc2c3c(nn(-c4cc[nH]n4)c3n1)CCN(C(=O)C1CC1(F)F)C2 (stereo partly drawn) [Compound 19, (2,2-difluorocyclopropyl)(4-((R)-3-methylmorpholino)-2-(1H-pyrazol-3-yl)-2,6,8,9-tetrahydro-7H-1,2,3,7-tetraazabenzo[cd]azulene-7-yl)methanone]	< 10	100 to 1000			
C[C@@H]1COCCN1c1cc2c3c(n1)c(-c1cc[nH]n1)nn3CCC(=O)N2CC#CC(C)(C)O [Compound 103, (R)-6-(4-hydroxy-4-methylpent-2-yn-1-yl)-4-(3-methylmorpholinyl)-2-(1H-pyrazol-3-yl)-8,9-dihydro-1,3,6,9a-tetraazabenzo[cd]azulene-7(6H)-one]				10 to 100	100 to 1000
C[C@@H]1COCCN1c1cc2c3c(n1)c(-c1cc[nH]n1)nn3CCC(=O)N2C [Compound 86, (R)-6-methyl-4-(3-methylmorpholino)-2-(1H-pyrazol-3-yl)-8,9-dihydro-1,3,6,9a-tetraazabenzo[cd]azulene-7(6H)-one]	100 to 1000	100 to 1000			
CC(C(=O)N1CCc2nn(-c3cc[nH]n3)c3nc(N4CCOC[C@H]4C)cc(c23)C1)C(F)(F)F (stereo partly drawn) [Compound 16, 3,3,3-trifluoro-2-methyl-1-(4-((R)-3-methylmorpholinyl)-2-(1H-pyrazol-3-yl)-2,6,8,9-tetrahydro-7H-1,2,3,7-tetraazabenzo[cd]azulen-7-yl)propan-1-one]				< 10	100 to 1000
C[C@@H]1COCCN1c1cc2c3c(n1)c(-c1cc[nH]n1)nn3CCC(=O)N2C1(C(F)F)CC1 [Compound 102, (R)-6-(1-(difluoromethyl)cyclopropyl)-4-(3-methylmorpholinyl)-2-(1H-pyrazol-3-yl)-8,9-dihydro-1,3,6,9a-tetraazabenzo[cd]azulene-7(6H)-one]				< 10	< 100
C[C@@H]1COCCN1c1cc2c3c(n1)c(-c1cc[nH]n1)nn3CCC(=O)N2C1CC(F)(F)C1 [Compound 109, (R)-6-(3,3-difluorocyclobutyl)-4-(3-methylmorpholinyl)-2-(1H-pyrazol-3-yl)-8,9-dihydro-1,3,6,9a-tetraazabenzo[cd]azulene-7(6H)-one]				10 to 100	100 to 1000

Further lines, with some results ahead:

IC50 (ATR kinase; [1]) [nM]	IC50 (LoVo cells; [2]) [nM]	IC50 (LoVo cells; [5]) [nM]	SMILES	IC50 (ATR kinase; [3]) [nM]	IC50 (LoVo cells; [4]) [nM]
< 10	< 100		C[C@@H]1COCCN1c1cc2c3c(nn(-c4cc[nH]n4)c3n1)CCN(C)C2C1CC1 (single isomer, unassigned) [Compound 142A]		
< 10		100 to 1000	CCC1c2cc(N3CCOC[C@H]3C)nc3c2c(nn3-c2cc[nH]n2)CCN1S(=O)(=O)C1CC1 (single isomer, unassigned) [Compound 145B]		
< 10	< 100		CC(C)C1c2cc(N3CCOC[C@H]3C)nc3c2c(nn3-c2cc[nH]n2)CCN1C (single isomer, unassigned) [Compound 141A]		
< 10		> 1000	CC1c2cc(N3CCOC[C@H]3C)nc3c2c(nn3-c2cc[nH]n2)CCN1S(C)(=O)=O (single isomer, unassigned) [Compound 39B]		
< 10		< 100	CC1c2cc(N3CCOC[C@H]3C)nc3c2c(nn3-c2cc[nH]n2)CCN1S(=O)(=O)C1CC1 (single isomer, unassigned) [Compound 37B]		
< 10	100 to 1000		CCC1c2cc(N3CCOC[C@H]3C)nc3c2c(nn3-c2cc[nH]n2)CCN1S(C)(=O)=O (single isomer, unassigned) [Compound 144A]		
10 to 100		100 to 1000	CC1c2cc(N3CCOC[C@H]3C)nc3c2c(nn3-c2cc[nH]n2)CCN1S(=O)(=O)C1CC1F (single isomer, unassigned) [Compound 151C]		
< 10		< 100	C[C@@H]1COCCN1c1cc2c3c(nn(-c4cc[nH]n4)c3n1)CCN(C)C2C1CC1 (single isomer, unassigned) [Compound 142B]		
